{
  "source": "patent EP2557075A1",
  "about": "“New triazene compounds for treating cancer” (Trin Therapeutics GmbH, priority 2011, dated 2013)",
  "key": {"HepG2 [1]": {"system": "HepG2", "experiment": "Intracellular metabolisation of triazenes in HepG2 cell culture (Experiment 1)", "assay_type": "in vitro ADME", "conditions": "HepG2, 100nmol/ml, 100% FCS, binnen 6 Stunden", "experimental": "Es wird gezeigt, dass Verbindungen nach Beispiel 1 schneller und in größerer Menge intrazellulär metabolisiert werden als die als Vergleichssubstanzen eingesetzten Verbindungen nach Präparat 2 und 5 (entsprechend Verbindungen nach Präparat 2 und Beispiel 2a jeweils der WO 2009/004060).\nDie getesteten Verbindungen wurden wie folgt gelöst: • Erfindungsgemäße Verbindung: • Beispiel 1 : in 20 mg/ml DMSO\n(§1) Vergleichssubstanzen: • Präparat 2: in 50mg/ml DMSO, • Präparat 5: in 50mg/ml Wasser.\nAlle drei Substanzen wurden äquimolar in einer Dosis von 100nmol/ml auf 1 x 10^7 HepG2 bzw. MCF-7-Zellen gegeben. Als Zellkulturmedium wurde 100% fötales Kälberserum (FCS) verwendet. Für den Versuch wurde der Gehalt aus Ausgangsprodukt und Metaboliten im Zellüberstand nach 1, 3 und 6 (HepG2) bzw. 1,3 und 20 Stunden (MCF-7) Inkubationszeit ermittelt. Alle drei Substanzen zeigten in Kontrollversuchen mit 100% FCS nach 40 Stunden metabolische Stabilität."}, "HepG2 [2]": {"system": "HepG2", "experiment": "Intracellular uptake of triazenes in HepG2 cells (Experiment 2)", "assay_type": "in vitro ADME", "conditions": "HepG2, 50.000ng/ml, 10.000ng/ml O6-Benzylguanin, 2, 4 und 20 Stunden", "experimental": "Es wird gezeigt, dass Verbindungen nach Beispiel 1 schneller und in größerer Menge intrazellulär aufgenommen werden als die als Vergleichssubstanzen eingesetzten Verbindungen nach Präparat 2 und 5 (entsprechend Verbindungen nach Präparat 2 und Beispiel 2a jeweils der WO 2009/004060).\nDie getesteten Verbindungen wurden wie folgt gelöst: • Erfindungsgemäße Verbindung: • Beispiel 1: in 20 mg/ml DMSO\nas §1\nAlle drei Substanzen wurden in einer Dosis von 50.000ng/ml auf 2 x 10^7 HepG2 und HCT-8 sowie 2 x 10^6-MDA-MB231 Zellen gegeben. Als Zellkulturmedium wurde 100% (MDA-MB231: 50%) fötales Kälberserum (FCS) verwendet. Zudem wurde bei den Versuchen mit HepG2 und HCT-8 noch 10.000ng/ml O6-Benzylguanin zugesetzt. Für den Versuch wurde die intrazelluläre Konzentration von Ausgangsprodukt und Metaboliten nach 2, 4 und 20 (HepG2), 2 und 3,5 und 20 Stunden (MDA-MB231) und 2,4, 24 und 48 Stunden (HCT-8) Inkubationszeit ermittelt. Alle drei Substanzen zeigten in Kontrollversuchen mit 100% FCS nach 40 Stunden metabolische Stabilität."}, "[3]": {"system": "drei Pankreaskrebszelllinien", "experiment": "IC50 of triazenes in three pancreatic cancer cell lines (Experiment 4)", "assay_type": "cell-based", "source_text": "Verschiedene Triazene wie erfindungsgemäße Verbindungen nach Beispiel 1, DTIC, TMZ sowie Verbindungen nach Präparat 2 und 5 (entsprechend Verbindungen nach Präparat 2 und Beispiel 2a jeweils der WO 2009/004060) sowie Verbindungen nach Beispiel 2 und 33 der DE1793115 wurden in DMSO bzw. Wasser gelöst."}, "Mammakarzinome": {"system": "Mammakarzinome", "experiment": "Benzidine-induced mammary carcinoma in female rats (Experiment 6)", "assay_type": "in vivo, Ratten", "conditions": "s.c. or peroral, observation to day 30, percent median vs. start of treatment", "experimental": "Die Mammakarzinome werden durch subkutane Injektionen von in physiologischer Kochsalz-Lösung suspendiertem Benzidin an weiblichen Ratten induziert. Je nach Art des Rattenstammes sind dazu unterschiedlich hohe Gesamtdosen und verschieden lange Induktionszeiten erforderlich. Bei zwei untersuchten Wistar-Stämmen (Züchter: Spiegel bzw. Winkelmann) erscheinen die Tumoren nach einer Induktionszeit von 150-330 Tagen und einer Gesamtdosis von 1000 bis 1225mg/kg Benzidin subkutan. Bei zwei verschiedenen Sprague-Dawley-Stämmen (Züchter: Mus Rattus AG bzw. Winkelmann) genügt schon eine einzige Benzidin-Injektion von 150mg/kg s.c., um nach 60-180 Tagen die Mammakarzinome entstehen zu lassen. Die Mammakarzinome entwickeln sich fast immer multipel. Acht oder mehr Tumoren pro Tier sind keine Seltenheit. Die Tumoren wachsen ziemlich schnell und führen etwa 30 bis 1 20 Tage nach Tastbarwerden zum Tode der Ratten. Nach 30 Tagen ist eine Tumorgröße von 6g zu erwarten (Figur 1 aus DE 01 7931 15).\nDie Vergleichssubstanzen wurden für 30 Tage täglich s.c, oder peroral in Dosierungen zwischen 50-200mg/kg verabreicht. Die Verbindung nach Beispiel 1 wurde s.c. über die ersten 7 Tage in Dosierungen zwischen 20 und 100mg/kg, so dann in Dosierungen von 200 bis 1000mg/kg (in Stufen von 100mg/kg) für weitere 10 Tage appliziert. Bis zum Tag 30 erfolgte keine weitere Behandlung. […]"}, "CEM": {"system": "CEM", "experiment": "Growth inhibition (IC50) in leukaemic CEM cells (Experiment 7)", "assay_type": "cell-based", "conditions": "Homo sapiens, CCRF-CEM, 24 Stunden", "source_text": "Hämatologische Zellen (CEM, HL-60) wurden für 24 Stunden mit unterschiedlichen Dosen verschiedener Triazenverbindungen inkubiert, um die IC50 zu bestimmen."}, "[4]": {"experiment": "Formulation trials for intravenous application (Experiment 8)", "assay_type": "physicochemical", "experimental": "Um die Testergebnisse aus Experiment 7 in einem in-vivo Xenograft Modell zu bestätigen, wurden Formulierungsversuche mit Verbindungen nach Beispiel 1 sowie der Verbindung nach Beispiel 2 aus DE 1 793 1 15, als den wirksamsten Verbindungen aus Experiment 7, unternommen.\n15mg der Verbindung nach Beispiel 1 werden in 30µL DMSO ([…]) gelöst. Diese Stocklösung wird in 270µL 1 M Na2CO3 Lösung gegeben und nur leicht geschwenkt, nicht aber mittels Ultraschallbad behandelt.\nGleichermaßen sollte eine Formulierung für Verbindungen nach Beispiel 2 aus DE 1 7 93 1 15 hergestellt werden. Hier wurden 15µL der Verbindung nach Beispiel 2 vorgelegt. Bei einer Dichte von 1,08g/ml entsprach dies 16,2mg der Verbindung nach Beispiel 2. Dazu wurden 32,4µL DMSO gegeben. […] Sodann wurden 90µL einer frisch hergestellten 1 molaren Na2CO3 Lösung vorgelegt und 10µL der Lösung der Verbindung nach Beispiel 2 hinzugegeben. […] Auch mittels Ultraschallbad konnte keine Auflösung des erzeugten Niederschlags herbeiführen."}},
  "note": "pIC50: −log10 of the molar value. Like-named read-outs stand apart in the source and are kept apart here.",
  "data": [
    {"smiles": "CN(C)N=Nc1ccc(C(=O)c2ccc(O)cc2)cc1", "note": "[Beispiel 1]", "values": [
      {"measurement": "Ausgangssubstanz metabolisiert", "setting": "HepG2 [1]", "value": 28, "unit": "%"},
      {"measurement": "intrazelluläre Konzentration vs. Vergleichssubstanzen", "setting": "HepG2 [2]", "value": "deutlich schneller und in höheren Konzentrationen intrazellulär nachweisbar"},
      {"measurement": "antitumorale Aktivität (IC50) compared with Vergleichssubstanzen", "setting": "[3]", "value": "deutliche Überlegenheit"},
      {"measurement": "Entwicklung der Tumorgewichte", "setting": "Mammakarzinome", "value": "zu jedem Beobachtungszeitpunkt langsamer als unter einer Therapie mit den verwendeten Vergleichssubstanzen"},
      {"measurement": "pIC50", "setting": "CEM; mean of Exp. 1-4, read-out: IC50 Mittelwert", "value": 4.64},
      {"measurement": "pIC50", "setting": "CEM; read-out: IC50 Exp. 1", "value": 4.63},
      {"measurement": "pIC50", "setting": "CEM; read-out: IC50 Exp. 2", "value": 4.53},
      {"measurement": "pIC50", "setting": "CEM; read-out: IC50 Exp. 3", "value": 4.62},
      {"measurement": "pIC50", "setting": "CEM; read-out: IC50 Exp. 4", "value": 4.85},
      {"measurement": "Stabilität der gebrauchsfertigen Lösung", "setting": "[4]; 15mg in 30µL DMSO + 270µL 1 M Na2CO3, Raumtemperatur", "value": "unter Raumtemperatur stabil"},
      {"measurement": "Löslichkeit in der Formulierung", "setting": "[4]; DMSO stock solution given into 1 M Na2CO3 Lösung", "value": "vollständig löst"},
      {"measurement": "stabile und verträgliche Formulierung", "setting": "[4]; Lösungsmittel wie Cremophor, PEG400, Tween80, Poloxamer", "value": "nicht erreicht werden konnte"}
    ]}
  ]
}
